The source of these data is patent US6610710B2, “Phenylalanine derivatives” (Ajinomoto Co., Inc., priority 1999, dated 2003).

The assay deals with T1, integrin α4β7 (RPMI-8866 cells) binding with recombinant human VCAM-1 (Homo sapiens, UniProt P13612+P26010).
T1 construct: lymphoma cell strain RPMI-8866 of human B cells, known to express integrin α4β7; endogenous in cells; host or cells: RPMI-8866 (human B-cell lymphoma line)
T1 sequence (P13612 34-1032): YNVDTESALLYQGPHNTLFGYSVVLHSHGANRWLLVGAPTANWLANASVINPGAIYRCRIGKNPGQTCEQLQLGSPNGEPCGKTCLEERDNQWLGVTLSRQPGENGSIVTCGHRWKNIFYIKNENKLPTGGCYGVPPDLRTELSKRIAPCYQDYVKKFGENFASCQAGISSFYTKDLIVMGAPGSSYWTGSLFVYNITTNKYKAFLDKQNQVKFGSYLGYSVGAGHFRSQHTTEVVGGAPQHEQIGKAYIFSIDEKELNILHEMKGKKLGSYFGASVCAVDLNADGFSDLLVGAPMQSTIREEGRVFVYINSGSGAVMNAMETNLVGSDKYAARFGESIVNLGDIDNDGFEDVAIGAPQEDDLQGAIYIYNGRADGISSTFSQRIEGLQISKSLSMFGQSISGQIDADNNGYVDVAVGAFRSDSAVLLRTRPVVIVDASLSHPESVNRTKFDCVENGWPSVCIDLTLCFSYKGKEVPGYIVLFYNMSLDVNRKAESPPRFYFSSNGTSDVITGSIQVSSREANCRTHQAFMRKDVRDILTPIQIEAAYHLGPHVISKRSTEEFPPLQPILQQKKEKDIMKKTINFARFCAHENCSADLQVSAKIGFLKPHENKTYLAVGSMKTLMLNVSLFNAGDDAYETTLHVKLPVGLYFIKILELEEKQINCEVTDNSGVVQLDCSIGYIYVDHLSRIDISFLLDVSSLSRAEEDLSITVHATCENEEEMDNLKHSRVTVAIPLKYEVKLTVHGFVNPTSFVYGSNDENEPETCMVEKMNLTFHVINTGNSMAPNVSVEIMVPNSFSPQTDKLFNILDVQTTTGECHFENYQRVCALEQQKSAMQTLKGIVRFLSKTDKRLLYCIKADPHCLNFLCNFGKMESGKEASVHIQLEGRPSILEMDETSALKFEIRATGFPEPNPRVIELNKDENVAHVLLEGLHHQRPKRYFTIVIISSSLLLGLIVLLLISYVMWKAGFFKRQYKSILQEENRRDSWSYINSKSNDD
T1 sequence (P26010 20-798): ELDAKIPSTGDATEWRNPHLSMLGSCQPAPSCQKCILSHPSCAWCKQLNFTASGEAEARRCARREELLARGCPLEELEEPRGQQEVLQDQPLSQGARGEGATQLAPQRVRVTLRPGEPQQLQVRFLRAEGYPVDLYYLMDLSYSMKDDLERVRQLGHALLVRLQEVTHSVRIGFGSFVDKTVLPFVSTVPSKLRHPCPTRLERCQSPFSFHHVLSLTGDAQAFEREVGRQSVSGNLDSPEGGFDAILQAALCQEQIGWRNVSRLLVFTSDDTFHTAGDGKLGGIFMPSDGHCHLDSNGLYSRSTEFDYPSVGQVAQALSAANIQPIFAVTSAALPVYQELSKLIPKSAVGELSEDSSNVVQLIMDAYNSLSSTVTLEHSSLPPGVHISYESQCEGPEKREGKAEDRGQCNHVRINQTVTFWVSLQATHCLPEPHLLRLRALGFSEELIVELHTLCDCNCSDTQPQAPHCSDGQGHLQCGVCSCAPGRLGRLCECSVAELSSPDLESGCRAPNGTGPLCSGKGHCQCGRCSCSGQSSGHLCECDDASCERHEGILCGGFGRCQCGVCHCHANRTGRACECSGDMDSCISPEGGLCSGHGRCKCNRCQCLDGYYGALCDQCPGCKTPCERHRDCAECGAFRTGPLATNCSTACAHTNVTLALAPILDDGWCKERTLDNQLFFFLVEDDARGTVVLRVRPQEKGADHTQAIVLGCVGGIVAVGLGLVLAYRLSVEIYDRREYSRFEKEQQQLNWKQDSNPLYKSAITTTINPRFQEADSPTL
As to the kind of experiment: VCAM antagonistic activity (VCAM-1/α4β7 binding assay), RPMI-8866 cell adhesion. The format is cell-based. To be noted: recombinant human VCAM-1, 4 mM MnCl2, read-out: VCAM/α 4 β 7 antagonistic activity to integrin (IC50). The method, then: (Test Example) VCAM Antagonistic Activity (VCAM-1/α4β7 Binding Assay):
The capacity of a test substance antagonistic to the binding of lymphoma cell strain RPMI-8866 of human B cells, known to express integrin α4β7, with VCAM-1 was determined.
100 μl/well of a solution (500 ng/ml ) of recombinant human VCAM-1 (R & D systems) diluted with buffer A (0.1 M NaHCO3, pwH 9.6) was added to a micro titer plate having 96 wells (Nunc Maxisorp). After the incubation at 4° C. overnight, unbound VCAM-1 was removed by once washing with PBS. After completion of the washing, a buffer (buffer B) obtained by diluting Block Ace® (Dainippon Pharmaceutical Co., Ltd.) with PBS to 1/4 concentration was added in an amount of 150 μl/well. After the incubation at room temperature for 1 hour, buffer B was removed and the plate was washed with PBS once.
RPMI-8866 cells were incubated in Dulbecco modified Eagle medium containing 10 μg/ml of Calcein-AM (Wako Pure Chemical Industries, Ltd.) (SIGMA, hereinafter referred to as “DMEM”) at 37° C. for 30 minutes to label them with fluorescence. The cells were again suspended in a binding buffer (DMEM containing 20 mM HEPES, 0.1% BSA) containing 4 mM of MnCl2.
50 μl of a test substance of various concentrations obtained by the dilution with the binding buffer was added to the plate. Immediately thereafter, 50 μl (final volume: 100 μl/well) of the fluorescent RPMI-8866 cells (4×10^6 cells/ml) were added thereto, and they were incubated at room temperature for 30 minutes. After the shaking on a plate shaker (IKA MTS-4) at 800 rpm for 30 seconds, the solution was immediately removed to remove the unbound cells. The fluorescence quantity of the bound cells remaining in the wells was determined with a fluorescent plate reader (Wallac 1420 ARVO multi-label counter) (filter excitation wave length: 485 nml, emission wave length: 535 nm). The fluorescent strength thus obtained is proportional to the number of RPMI-8866 cells bound to VCAM-1 and remaining on the plate. The binding rate of each test material in various concentrations was determined while the fluorescent strength of the test material-free well was determined to be 100%. The concentration IC50 for the 50% binding inhibition was calculated.
With `COc1cccc(NNC(=O)[C@H]2CC[C@H](C(=O)N[C@@H](Cc3ccc(OCc4c(Cl)cccc4Cl)cc3)C(=O)O)CC2)c1` [Example 44], the IC50 was not above 200 nM.
The same measure for `O=C(Nc1ccc(C[C@H](NC(=O)[C@H]2CC[C@H](C(=O)O)CC2)C(=O)O)cc1)c1snnc1-c1ccccc1` [Example 45, N-(Trans-4-carboxycyclohexane-1-carbonyl)-4-{[(4-phenyl-1,2,3-thiadiazole-5-yl)carbonyl]amino}-L-phenylalanine]: not above 200 nM; for `COc1ccc(NNC(=O)[C@H]2CC[C@H](C(=O)N[C@@H](Cc3ccc(OCc4c(Cl)cccc4Cl)cc3)C(=O)O)CC2)cc1` [Example 14]: not above 200 nM.
In the case of `COc1cccc(OC)c1-c1ccc(C[C@H](NC(=O)[C@H]2CC[C@H](C(=O)O)CC2)C(=O)O)cc1` [Example 50, N-(Trans-4-carboxycyclohexane-1-carbonyl)-4-(2,6-dimethoxyphenyl)-L-phenylalanine], the IC50 was not above 200 nM.
The same measure for `COc1ccc(NNC(=O)[C@H]2CC[C@H](C(=O)N[C@@H](Cc3ccc(NC(=O)c4snnc4-c4ccccc4)cc3)C(=O)O)CC2)cc1` [Example 46, N-[Trans-4-(4-methoxyphenylhydrazinocarbonyl)cyclohexane-1-carbonyl]-4-{[(4-phenyl-1,2,3-thiadiazole-5-yl)carbonyl]amino}-L-phenyl-alanine]: not above 200 nM; for `COc1ccc(NNC(=O)[C@H]2CC[C@H](C(=O)N[C@@H](Cc3ccc(-c4c(OC)cccc4OC)cc3)C(=O)O)CC2)cc1` [Example 51, N-[Trans-4-(4-methoxyphenylhydrazinocarbonyl)cyclohexane-1-carbonyl]-4-(2,6-dimethoxyphenyl)-L-phenylalanine]: not above 200 nM; for `O=C(O)[C@H](Cc1ccc(OCc2c(Cl)cccc2Cl)cc1)NC(=O)[C@H]1CC[C@H](C(=O)NNc2ccc(OC(F)(F)F)cc2)CC1` [Example 35]: not above 200 nM.
The result for `O=C(O)[C@H](Cc1ccc(OCc2c(Cl)cccc2Cl)cc1)NC(=O)[C@H]1CC[C@H](C(=O)NCc2ccccc2)CC1` [Example 6] reads 1000 to 5000 nM; that for `O=C(O)[C@H](Cc1ccc(OCc2c(Cl)cccc2Cl)cc1)NC(=O)[C@H]1CC[C@H](C(=O)NNc2ccccc2)CC1` [Example 3, N-(Trans-4-phenylhydrazinocarbonylcyclohexane-1-carbonyl)-O-(2,6-dichlorobenzyl)-L-tyrosine], not above 200 nM; that for `O=C(O)[C@H](Cc1ccc(OCc2c(Cl)cccc2Cl)cc1)NC(=O)[C@H]1CC[C@H](C(=O)O)CC1` [Example 2, N-(Trans-4-carboxycyclohexane-1-carbonyl)-O-(2,6-dichlorobenzyl)-L-tyrosine], not above 200 nM.
As for `O=C(O)[C@H](Cc1ccc(OCc2c(Cl)cccc2Cl)cc1)NC(=O)[C@H]1CC[C@H](C(=O)NNc2ccc(Br)cc2)CC1` [Example 4, N-[Trans-4-(4-bromophenylhydrazinocarbonyl)cyclohexane-1-carbonyl]-O-(2,6-dichlorobenzyl)-L-tyrosine], the IC50 lay in the range of 200 to 1000 nM.
The same measure for `Cc1ccc(NNC(=O)[C@H]2CC[C@H](C(=O)N[C@@H](Cc3ccc(OCc4c(Cl)cccc4Cl)cc3)C(=O)O)CC2)cc1` [Example 34]: not above 200 nM.
